Each structure is given as a SMILES string. In brackets after ≈: the same amount, converted by molar mass.

Consider 76 molecules from PubChem BioAssay AID1996.

The conditions of this series: buffer; pH 7.4; 200.0 µM.
As for `O=C(NC1CCCC1)c1cc(=O)[nH]c2ccccc12`, the solubility (kinetic) stood at 33.6 µg/mL (≈ 131 µM).
`Cc1ccc(S(=O)(=O)N2CCCCC2C(=O)Nc2ccc(N(C)C)cc2)cc1` (stereo unspecified) displayed a kinetic solubility of 5.7 µg/mL (≈ 14.2 µM).
Then `Cc1cccn2c(=O)c(C=O)c(Nc3ccccc3)nc12`, with less than 0.2 µg/mL.
For `Cc1ccccc1SCC(=O)NCCCn1ccnc1` the value was 42.9 µg/mL (≈ 148 µM); for `COC(=O)c1ccc(Nc2cc(C)nc3ccc(C)cc23)cc1.Cl`, 8 µg/mL.
With `CSc1ccccc1Nc1ncnc(N)n1`, the kinetic solubility was 25.8 µg/mL (≈ 111 µM).
Molecule `Cc1ccsc1-c1nc(CN2CCCC2c2ccc(F)cc2)c(C)o1` (stereo unspecified) returned a solubility (kinetic) of 14.9 µg/mL (≈ 41.8 µM).
As to `OCCOCCN1CCN(C(=S)Nc2ccccc2)CC1`, the solubility (kinetic) is more than 46.4 µg/mL.
`CN(C)S(=O)(=O)N1CCN(CC(=O)Nc2ccc(F)cc2)CC1` returned a solubility (kinetic) of more than 51.7 µg/mL.
`Cc1cccc(OCC(=O)NCc2ccccc2)c1` showed a kinetic solubility of more than 38.3 µg/mL.
In turn, `CC(=O)Nc1ccc(SCC(=O)c2cc(C)ccc2C)cc1` returned a solubility (kinetic) of 28 µg/mL (≈ 89.3 µM).
`Cc1cccnc1NC(=O)CNC(=O)COc1ccccc1` returned a kinetic solubility of more than 44.9 µg/mL.
As to `Cc1cc(NC(=O)CN2C(=O)c3ccccc3C2=O)no1`, the solubility (kinetic) amounted to 37.9 µg/mL (≈ 133 µM).
Regarding `COc1cc(SC)ccc1C(=O)NCCCn1ccnc1`, the solubility (kinetic) is more than 45.8 µg/mL.
`O=C(Cc1ccccc1)Nc1nccs1` returned a solubility (kinetic) of more than 32.7 µg/mL.
Turning to `Cc1ccc([N+](=O)[O-])cc1N(CC(=O)N1CCCCC1)S(C)(=O)=O`, the kinetic solubility is more than 53.3 µg/mL.
In turn, `COc1ccc(Nc2c(-c3ccco3)nc3ccc(C)cn23)cc1` gave a solubility (kinetic) of 0.5 µg/mL (≈ 1.57 µM).
Molecule `Cn1c(SCc2ccccc2F)nc2ccccc2c1=O` came in with a kinetic solubility of less than 0.3 µg/mL.
For `Cc1ccc(CNC(=O)C2CC(=O)N(CCC(C)C)C2)cc1` (stereo unspecified) the value was 40.5 µg/mL (≈ 134 µM); for `COc1ccc(OCCNC(=O)Nc2cc(F)c(F)cc2Cl)cc1`, less than 0.4 µg/mL; for `N#C/C(=C\c1ccccc1O)C(=O)Nc1cccnc1`, 2.6 µg/mL (≈ 9.8 µM).
For the molecule `CCOC(=O)c1c(C)[nH]c(C)c1C(=O)COC(=O)CSc1ccc(C)cc1`, the solubility (kinetic) was more than 58.4 µg/mL.
Take `O=C1CCN(S(=O)(=O)c2ccc(Cl)cc2)CC1`: the solubility (kinetic) is more than 41.1 µg/mL.
For `N#Cc1ccc(N2CCN(C(=O)c3cccs3)CC2)c(F)c1` the value was 40.1 µg/mL (≈ 127 µM); for `O=C(Cn1c(=O)oc2ccc(Cl)cc21)Nc1ccon1`, 6.2 µg/mL (≈ 21.1 µM).
In the case of `COC(=O)C(Cc1ccccc1)NC(=O)CCNC(=O)c1ccco1` (stereo unspecified), the solubility (kinetic) was more than 51.7 µg/mL.
Then `CCNC(=S)Nc1ccc(Cc2ccncc2)cc1`, with 38.3 µg/mL (≈ 141 µM); and `COCCCNC(=O)c1cc2cc(Br)ccc2oc1=O`, with 4.4 µg/mL (≈ 12.9 µM).
Turning to `CCOc1ccccc1NC(=O)COC(=O)/C=C/c1cccs1`, the kinetic solubility was determined as 3.1 µg/mL (≈ 9.35 µM). The solubility kinetic values of the last two molecules are within 1.5-fold of each other.
As for `CC(C)(C)c1ccc(C(=O)N2CCN(C(=O)c3cccs3)CC2)cc1`, the kinetic solubility is more than 53.5 µg/mL.
`CCOC(=O)c1ccccc1NC(=O)CSc1nncn1C` came in with a kinetic solubility of more than 48.1 µg/mL.
In turn, `N=c1oc2ccccc2cc1C(=O)Nc1ccc(F)cc1` returned a solubility (kinetic) of 0.6 µg/mL (≈ 2.13 µM).
`CC(=C\c1ccccc1)/C=C1/SC(=S)N(CCCC(=O)O)C1=O`: the solubility (kinetic) was more than 52.1 µg/mL.
`Cn1cncc1COC(=O)c1ccc(Cl)cc1` registered a kinetic solubility of more than 37.6 µg/mL.
`O=C(NC1=NCCS1)c1cc(Cl)ccc1Cl` gave a kinetic solubility of 37.1 µg/mL (≈ 135 µM).
Then `COc1ccc(/C=N/OCc2ccccc2C#N)c(OC)c1`, with 0.4 µg/mL (≈ 1.35 µM); and `CCCNC(=O)N1CCC(c2nc3ccccc3s2)CC1`, with more than 45.5 µg/mL.
As for `Cc1ccsc1C(=O)NCC(C)(C)N1CCOCC1`, the solubility (kinetic) is more than 42.4 µg/mL.
`Cc1[nH]c(=O)c(C#N)c(C)c1CSc1ncccn1` had a solubility (kinetic) of more than 40.8 µg/mL.
Consider `c1ccc(-c2ccc(CN3CCSCC3)cc2)cc1`, for which the solubility (kinetic) is 1.7 µg/mL (≈ 6.31 µM).
Regarding `O=C1c2ccccc2NC(c2cccc(O)c2)N1Cc1ccco1` (stereo unspecified), the solubility (kinetic) is more than 48.1 µg/mL.
`COc1ccc(CCNC(=O)CN2C(=O)NC(c3ccccc3)(c3ccccc3)C2=O)cc1` came in with a kinetic solubility of 10 µg/mL (≈ 22.5 µM).
In turn, `Cc1ccc(C(=O)CCC(=O)NCc2ccccc2)cc1` displayed a kinetic solubility of 16.9 µg/mL (≈ 60.1 µM).
`Cc1ccc(C)c(C(=O)COC(=O)c2c(-c3ccccc3)noc2C)c1` came in with a solubility (kinetic) of 4.4 µg/mL (≈ 12.6 µM).
`CCC(C)(NC(=O)c1ccc2c(c1)OCO2)C(=O)NC1CCCCC1` (stereo unspecified) came in with a kinetic solubility of more than 52 µg/mL.
Then `COc1cc(/C=C/C(=O)OCC(=O)N(C)Cc2ccccc2)cc(OC)c1OC`, with more than 59.9 µg/mL.
Then `CC(=O)NS(=O)(=O)c1ccc(NC(=S)Nc2ccccc2)cc1`, with more than 52.4 µg/mL.
With `COc1ccc(OC)c(/C=C/C(=O)Nc2ccc(OC)nc2)c1`, the kinetic solubility worked out at 4.7 µg/mL (≈ 15 µM).
Molecule `Cn1c(=O)c2c(nc(SCc3ccc(F)cc3)n2C)n(C)c1=O` yielded a solubility (kinetic) of 2 µg/mL (≈ 5.98 µM).
The molecule `Cc1cccc(C)c1OCC(O)CNC(C)c1ccccc1.Cl` (stereo unspecified) showed a solubility (kinetic) of more than 50.4 µg/mL.
As for `O=C(CCCN1C(=O)C2CC=CCC2C1=O)Nc1ccccc1F` (stereo unspecified), the solubility (kinetic) is more than 49.6 µg/mL.
`Cc1cccc(N2C(=O)C3C4C=CC(CC4)C3C2=O)c1` (stereo unspecified) had a solubility (kinetic) of 33.5 µg/mL (≈ 125 µM).
Molecule `Oc1ccc(-c2csc(Nc3ncccn3)n2)cc1` had a solubility (kinetic) of 1 µg/mL (≈ 3.7 µM).
Then `N#CC1=C(N)Oc2cc(N)ccc2C1c1ccc(F)cc1F` (stereo unspecified), with more than 44.9 µg/mL; and `C=CCOc1ccc(C=Nc2ccc(OC)cc2)c(O)c1`, with 6.5 µg/mL (≈ 22.9 µM); and `CCc1cccc2c(C(=O)C(NCCOC)c3ccccc3)c[nH]c12` (stereo unspecified), with more than 50.5 µg/mL.
For `O=S1(=O)CCN(OCc2ccc(F)cc2Cl)CC1` the value was 43.1 µg/mL (≈ 147 µM).
Take `Cc1nc2c(C)cccc2c2c1CCN2c1ccccc1F`: the kinetic solubility came to 33.3 µg/mL (≈ 114 µM).
Molecule `CCCCNC(=O)COC(=O)c1ccc(C)c(NC(=O)c2ccco2)c1` gave a solubility (kinetic) of 17.8 µg/mL (≈ 49.7 µM).
With `O=c1oc2cccnc2n1CCS(=O)(=O)c1ccc(F)cc1`, the kinetic solubility is 45 µg/mL (≈ 140 µM).
`N#CC(C(=O)c1ccccc1Cl)=C1SCCCS1` yielded a kinetic solubility of 9.4 µg/mL (≈ 31.8 µM).
With `O=C(Nc1ccccn1)c1sc2cccc(F)c2c1Cl`, the solubility (kinetic) is less than 0.3 µg/mL.
Molecule `COc1ccccc1NS(=O)(=O)c1ccc2oc(N)nc2c1` displayed a solubility (kinetic) of more than 47.9 µg/mL.
The molecule `CC(=O)Nc1ccc2c(c1)N(C(C)=O)c1ccccc1CC2` showed a solubility (kinetic) of more than 44.2 µg/mL.
The molecule `O=C(COC(=O)Cc1ccccc1)Nc1cccnc1Cl` registered a kinetic solubility of more than 45.7 µg/mL.
`COc1ccc(S(=O)(=O)N(C)C)cc1NC(=O)COC(=O)C1CC1` gave a kinetic solubility of more than 53.5 µg/mL.
In the case of `CN1CCN(CC(=O)Nc2nc3c(s2)CCCC3)CC1`, the solubility (kinetic) was more than 44.2 µg/mL.
As to `Cc1ccc2ccccc2c1NC(=O)c1ccco1`, the kinetic solubility was more than 37.7 µg/mL.
The molecule `COc1ccc(NC(=O)COC(=O)C(NC(=O)c2ccc(C)cc2)C(C)C)cn1` (stereo unspecified) showed a solubility (kinetic) of 57.9 µg/mL (≈ 145 µM).
In turn, `O=C(Nc1ccccc1-c1ccccc1)C1CCCC1` displayed a kinetic solubility of 32.4 µg/mL (≈ 122 µM).
Consider `Cc1csc(C(=O)O)c1NC(=O)c1c(Cl)cccc1Cl`, for which the solubility (kinetic) is 40.7 µg/mL (≈ 123 µM). The solubility kinetic values of the last two molecules are within 1.5-fold of each other.
Molecule `CC1CCCN(C(=O)COC(=O)COc2ccc(C#N)cc2)C1` (stereo unspecified) yielded a solubility (kinetic) of more than 47.5 µg/mL.
Consider `CC1CCCCN1C(=S)NCc1ccco1` (stereo unspecified), for which the solubility (kinetic) was more than 35.8 µg/mL.
Regarding `CCc1ccc(NS(=O)(=O)c2ccc3[nH]c(=O)[nH]c3c2)cc1`, the solubility (kinetic) came to 5.5 µg/mL (≈ 17.3 µM).
Consider `COc1ccc(C(=O)N2CCN=C2SC)cc1`, for which the solubility (kinetic) was more than 37.5 µg/mL.
In turn, `Cc1ccccc1CNC(=O)C1CCCN(c2cnccn2)C1` (stereo unspecified) registered a kinetic solubility of 44.3 µg/mL (≈ 143 µM).
